In brackets after ≈: the same amount, converted by molar mass. Several values for one entry are separate records, joined by “and”; a condition that tells them apart may be missing. Identical values can stand only once. Like-named read-outs stand apart in the source and are kept apart here. Marks after values point to notes of the source that are not given here. Where a SMILES comes first, the peptide text is derived from it. Bridges are numbered along the chain shown (N, C = ends).
Legend:
S. aureus ATCC43300 [1] = experiment: Effect of proteinases on activity (MIC); type: cell-based, Staphylococcus aureus; settings: 1:10 w/w proteinase:peptide, 37 °C for 3 h, then MIC assay
Procedure: (§1) The peptide solutions were diluted twofold with the range of final concentrations were 0.015–32 µg/ml (0.003–7.273 µM) for purified H1, H2, H3, H6, and H8. The test strains were grown in MHB medium at 37 °C to an OD600 of 0.4 and diluted to 1 × 10^5 CFU/ml. The 10 µl peptide and 90 µl cell suspension were added into each well. All assays were performed in triplicate. The antimicrobial activity of NZ2114 and vancomycin were tested as positive controls. The plates were incubated at 37 °C for 18–24 h. MIC was defined as the lowest peptide concentration of ones at which there was no visible growth (Tian et al. [2009]).
(§2) The effect of pH, temperature, NaCl concentration and proteinase on the activity of peptides was evaluated. Peptides were diluted twofold, then adjusted to a pH range from 2.0 to 10.0 and incubated at 37 °C for 4 h. The thermal stability of purified peptides was determined after 1-h incubation of peptides at 4, 20, 40, 60, 80 and 100 °C in deionized water, respectively. Aliquots of peptides were incubated in various proteinases solutions [pepsin (pH 2.0), trypsin (pH 8.0), proteinase K (pH 7.0)] at a ratio of 1:10, w/w (proteinase: peptide) at 37 °C for 3 h. For the ion stability, peptides were incubated in 50, 100, 200, 300, 400, 500 mM sodium chloride solutions, respectively. Other methods and conditions were prepared as the MIC assay described above (Li et al. [2015]; Qu et al. [2016]).

S. aureus ATCC43300 [2] = experiment: Postantibiotic effect (PAE); type: cell-based, Staphylococcus aureus; settings: 2 h exposure at 37 °C, 1 × 10^8 CFU/ml, drug removed by 1:10^3 dilution, mean ± SD, n = 3
Procedure: After 2 h, the drug was removed by diluting 1:10^3 into the MHB and incubated at 37 °C, 250 rpm. The sample was taken to plate counting every 1 h until the bacterial cultures become turbid. The PAE was calculated by the following formula: PAE = T − C, where T is the time needed for the count of CFU in the test culture to increase 1 log10 (10-fold) above the 0 h and C is the time needed for the count of CFU in the untreated control culture to increase 1 log10 above the 0 h (Giguère et al. [2012]).

S. aureus ATCC43300 [3] = experiment: Effect of NaCl concentration on activity (MIC); type: cell-based, Staphylococcus aureus
Procedure: as §1, §2

S. aureus ATCC43300 [4] = experiment: microbe, parasite or virus in culture; type: cell-based, Staphylococcus aureus; settings: for MICc (MIC of the most effective combination): checkerboard; for FIC: MICc/MICa
Procedure: The MIC values of four antibiotics (vancomycin, ampicillin, rifampicin and ciprofloxacin) to S. aureus ATCC43300 were tested as the MIC assay described above. The peptide solutions and antibiotics were diluted twofold with the final concentrations ranging from 1/16 to 8× MIC, and added into 96-well plates in a checkerboard fashion (White et al. [1996]). The results of combination were evaluated by calculating the fractional inhibitory concentration index (FICI) of each combination. FIC of H1, H2, H3=MIC of H1, H2, H3, respectively, in combination with antibiotic/MIC of H1, H2, H3 alone; FIC of antibiotics=MIC of antibiotic in combination with peptide/MIC of antibiotic alone; FICI = FIC of H1, H2, H3+ antibiotic, respectively. The result of interaction between two antimicrobial drugs was determined according to: FICI ≤ 0.5 refers to synergy, 0.5 < FICI ≤ 1 refers to additivity, 1 < FICI ≤ 4 refers to indifference, and FICI > 4 is defined as antagonism (Tsuji and Rybak [2006]).

[5] = test system: S. aureus ATCC43300 (MRSA); experiment: Time-kill curve assay; type: cell-based, Staphylococcus aureus; settings: 1× MIC
Procedure: Bacterial culture (S. aureus ATCC43300) was diluted to 1 × 10^5 CFU/ml and H1, H2, and H3 were added. […] The mixture was cultivated at 250 rpm, 37 °C. The 100-µl samples were taken from each flask at 0, 2, 4, 6, 8, 12 and 24 h of incubation, and serial dilutions of samples were plated to count visible colonies. Vancomycin was tested in the same way as a positive control and the culture without antimicrobial agent as a negative control (Xiong et al. [2011]). All experiments were performed in triplicate.

S. aureus ATCC43300 [6] = experiment: Effect of temperature on activity (MIC); type: cell-based, Staphylococcus aureus; settings: then MIC assay
Procedure: as §1, §2

S. aureus ATCC43300 [7] = experiment: Effect of pH on activity (MIC); type: cell-based, Staphylococcus aureus; settings: then MIC assay
Procedure: as §1, §2

mice red blood cells = experiment: Hemolytic assay; type: cell-based; settings: 0.23 to 7.27 μM (1–32 μg/ml), 37 °C 1 h
Procedure: The mice blood cells were washed three times in stroke-physiological saline solution (0.9% NaCl) and centrifuged at 4 °C, 2000 rpm for 5 min. A 50-μl cell was diluted to 8% (v/v), added into 96-well plates, and mixed with 50-μl peptide to the final concentrations ranging from […]. The plates were incubated at 37 °C for 1 h, and centrifuged at 4 °C, 5000 rpm for 5 min. The absorbance of supernatants was measured at 540 nm, and 0 and 100% hemolysis was measured by 0.9% NaCl and 0.1% Triton X-100, respectively. The hemolysis percentages were calculated by the following equation: [(Abs540 nm in H1, H2, H3 solution − Abs540 nm in 0.9% NaCl)/(Abs540 nm in 0.1% Triton X-100 − Abs540 nm in 0.9% NaCl)] ×100% (Jiao et al. [2015]).

S. aureus ATCC25923 = experiment: MIC assay; type: cell-based, Staphylococcus aureus; settings: Staphylococcus aureus, ATCC25923; MHB, 1 × 10^5 CFU/ml, 37 °C, 18–24 h, no visible growth, triplicate
Procedure: as §1

S. aureus ATCC6538 = experiment: MIC assay; type: cell-based, Staphylococcus aureus; settings: Staphylococcus aureus, ATCC6538; MHB, 1 × 10^5 CFU/ml, 37 °C, 18–24 h, no visible growth, triplicate
Procedure: as §1

S. suis CVCC3928 = settings: data from previous results; ref Jiao et al. [2015]; cited from earlier work
Description: (§3) Table 2 MIC assays of H1, H2, H3, H6, H8, NZ2114, and vancomycin against G^+ and G^− pathogens | column: MIC (μM) / Van

S. suis CVCC606 = settings: data from previous results; ref Jiao et al. [2015]; cited from earlier work
Description: as §3

S. suis CVCC3309 = settings: data from previous results; ref Jiao et al. [2015]; cited from earlier work
Description: as §3

[8] = test system: S. aureus ATCC43300 (MRSA); experiment: MIC assay; type: cell-based; settings: Staphylococcus aureus; MHB, 1 × 10^5 CFU/ml, 37 °C, 18–24 h, no visible growth, triplicate
Procedure: as §1

rabbit and human RBCs = settings: ref Yang et al. [2011], Zhang et al. [2014]; cited from earlier work
Description: Although the values were higher than NZ2114 due to the high charge and hydrophilicity, they were still very low in the range of MICs. […] Owing to contribution from the three pairs of disulfide bond into th ...

## CC[C@H](C)[C@@H]1NC(=O)[C@H](CO)NC(=O)[C@H](CCCCN)NC(=O)[C@@H]2CSSC[C@@H](C(=O)N[C@@H](Cc3ccc(O)cc3)C(=O)O)NC(=O)[C@H](CCCCN)NC(=O)[C@@H]3CSSC[C@H](NC(=O)[C@H](CCCNC(=N)N)NC(=O)[C@H](CC(C)C)NC(=O)[C@H](CC(=O)O)NC(=O)[C@H](CC(=O)O)NC(=O)[C@H](CCC(=O)O)NC(=O)[C@H](CC(N)=O)NC(=O)[C@H](Cc4c[nH]c5ccccc45)NC(=O)[C@@H]4CCCN4C(=O)CNC(=O)[C@H](CC(N)=O)NC(=O)[C@@H](NC(=O)CNC(=O)[C@H](Cc4ccccc4)NC(=O)CN)CSSC[C@H](NC(=O)[C@H](Cc4ccc(O)cc4)NC(=O)CNC(=O)CNC(=O)[C@H](CCCCN)NC(=O)[C@H](Cc4ccc(O)cc4)NC(=O)CNC(=O)[C@H](CCCCN)NC1=O)C(=O)N[C@@H](C)C(=O)N[C@@H](CCCCN)C(=O)NCC(=O)NCC(=O)N[C@@H](Cc1ccccc1)C(=O)N[C@@H](C(C)C)C(=O)N3)C(=O)N[C@@H](Cc1c[nH]cn1)C(=O)N[C@@H](CC(N)=O)C(=O)N[C@@H](CCCCN)C(=O)N2 [H3] (H-GFGCNGPWNEDDLRCHNKCKSIKGYKGGYCAKGGFVCKCY-OH; disulfide 4-30, 15-37, 19-39 (inferred); N-terminus and C-terminus assumed)
S. aureus ATCC43300 [1]; pepsin (pH 2.0)
  MIC after Pepsin: 0.057 µM (≈ 0.251 µg/mL)
S. aureus ATCC43300 [1]; proteinase K (pH 7.0)
  MIC after Proteinase K: 0.114 µM (≈ 0.502 µg/mL)
S. aureus ATCC43300 [1]; trypsin (pH 8.0)
  MIC after Trypsin: 0.057 µM (≈ 0.251 µg/mL)
S. aureus ATCC43300 [2]; 1× MIC
  PAE: 0.55 h and 0.55 ± 0.13 h
S. aureus ATCC43300 [2]; 2× MIC
  PAE: 1.55 ± 0.07 h
S. aureus ATCC43300 [3]; incubated in 50 mM sodium chloride solution
  MIC in 50 mM NaCl: 0.057 µM (≈ 0.251 µg/mL)
S. aureus ATCC43300 [3]; incubated in 100 mM sodium chloride solution
  MIC in 100 mM NaCl: 0.057 µM (≈ 0.251 µg/mL)
S. aureus ATCC43300 [3]; incubated in 200 mM sodium chloride solution
  MIC in 200 mM NaCl: 0.057 µM (≈ 0.251 µg/mL)
S. aureus ATCC43300 [3]; incubated in 300 mM sodium chloride solution
  MIC in 300 mM NaCl: 0.057 µM (≈ 0.251 µg/mL)
S. aureus ATCC43300 [3]; incubated in 400 mM sodium chloride solution
  MIC in 400 mM NaCl: 0.114 µM (≈ 0.502 µg/mL)
S. aureus ATCC43300 [4]; in combination with ampicillin
  MICc (MIC of the most effective combination): 0.056 µM
S. aureus ATCC43300 [4]; in combination with ciprofloxacin
  MICc (MIC of the most effective combination): 0.056 µM
S. aureus ATCC43300 [4]; in combination with rifampicin
  MICc (MIC of the most effective combination): 0.056 µM
S. aureus ATCC43300 [4]; in combination with vancomycin
  MICc (MIC of the most effective combination): 0.028 µM
S. aureus ATCC43300 [4]; drug alone, read-out: MICa (MIC of drug alone)
  MIC: 0.056 µM
[5]
  incubation time after which regrowth occurred: 8 h
S. aureus ATCC43300 [6]; 1 h at 4 °C in deionized water
  MIC after incubation at 4 °C: 0.057 µM (≈ 0.251 µg/mL)
S. aureus ATCC43300 [6]; 1 h at 20 °C in deionized water
  MIC after incubation at 20 °C: 0.057 µM (≈ 0.251 µg/mL)
S. aureus ATCC43300 [6]; 1 h at 40 °C in deionized water
  MIC after incubation at 40 °C: 0.057 µM (≈ 0.251 µg/mL)
S. aureus ATCC43300 [6]; 1 h at 60 °C in deionized water
  MIC after incubation at 60 °C: 0.057 µM (≈ 0.251 µg/mL)
S. aureus ATCC43300 [6]; 1 h at 80 °C in deionized water
  MIC after incubation at 80 °C: 0.057 µM (≈ 0.251 µg/mL)
S. aureus ATCC43300 [6]; 1 h at 100 °C in deionized water
  MIC after incubation at 100 °C: 0.114 µM (≈ 0.502 µg/mL)
S. aureus ATCC43300 [7]; pH 2, 37 °C for 4 h
  MIC after incubation at pH2: 0.057 μM
S. aureus ATCC43300 [7]; pH 4, 37 °C for 4 h
  MIC after incubation at pH4: 0.057 μM
S. aureus ATCC43300 [7]; pH 6, 37 °C for 4 h
  MIC after incubation at pH6: 0.114 μM
S. aureus ATCC43300 [7]; pH 8, 37 °C for 4 h
  MIC after incubation at pH8: 0.057 μM
S. aureus ATCC43300 [7]; pH 10, 37 °C for 4 h
  MIC after incubation at pH10: 0.057 μM
Mice red blood cells
  hemolytic activity: little or no hemolytic activity

## CN[C@H](CC(C)C)C(=O)N[C@H]1C(=O)N[C@@H](CC(N)=O)C(=O)N[C@H]2C(=O)N[C@H]3C(=O)N[C@H](C(=O)N[C@H](C(=O)O)c4cc(O)cc(O)c4-c4cc3ccc4O)[C@H](O)c3ccc(c(Cl)c3)Oc3cc2cc(c3O[C@@H]2O[C@H](CO)[C@@H](O)[C@H](O)[C@H]2O[C@H]2C[C@](C)(N)[C@H](O)[C@H](C)O2)Oc2ccc(cc2Cl)[C@H]1O [vancomycin]
S. aureus ATCC43300 [2]; 2× MIC
  PAE: 1.72 ± 0.11 h
S. aureus ATCC25923
  MIC: 0.172 µM (≈ 0.249 µg/mL)
S. aureus ATCC6538
  MIC: 1.43 µM (≈ 2.07 µg/mL)
S. suis CVCC3928
  MIC: 0.172^b μM
S. suis CVCC606
  MIC: 0.172^b μM
S. suis CVCC3309
  MIC: 0.172^b μM
[8]
  MIC: 0.714 µM (≈ 1.03 µg/mL)
S. aureus ATCC43300 [4]; Staphylococcus aureus, ATCC43300, read-out: MICa (MIC of drug alone)
  MIC: 0.714 µM
S. aureus ATCC43300 [4]; in combination with H1
  MICc (MIC of the most effective combination): 0.714 µM
  FIC: 1
S. aureus ATCC43300 [4]; in combination with H2
  MICc (MIC of the most effective combination): 0.714 µM
  FIC: 1
S. aureus ATCC43300 [4]; in combination with H3
  MICc (MIC of the most effective combination): 0.714 µM
  FIC: 1

## Plectasin
Rabbit and human RBCs
  hemolysis: no hemolysis
